22 molecules from patent publication US7420001B2 (Wyeth, priority 2003, dated 2008) can be followed below.

In one test the target is T1, MMP-2 (Homo sapiens, UniProt P08253).
T1 construct: purchased Oncogene Research Products (Calbiochem) PF023
T1 sequence (P08253 110-660): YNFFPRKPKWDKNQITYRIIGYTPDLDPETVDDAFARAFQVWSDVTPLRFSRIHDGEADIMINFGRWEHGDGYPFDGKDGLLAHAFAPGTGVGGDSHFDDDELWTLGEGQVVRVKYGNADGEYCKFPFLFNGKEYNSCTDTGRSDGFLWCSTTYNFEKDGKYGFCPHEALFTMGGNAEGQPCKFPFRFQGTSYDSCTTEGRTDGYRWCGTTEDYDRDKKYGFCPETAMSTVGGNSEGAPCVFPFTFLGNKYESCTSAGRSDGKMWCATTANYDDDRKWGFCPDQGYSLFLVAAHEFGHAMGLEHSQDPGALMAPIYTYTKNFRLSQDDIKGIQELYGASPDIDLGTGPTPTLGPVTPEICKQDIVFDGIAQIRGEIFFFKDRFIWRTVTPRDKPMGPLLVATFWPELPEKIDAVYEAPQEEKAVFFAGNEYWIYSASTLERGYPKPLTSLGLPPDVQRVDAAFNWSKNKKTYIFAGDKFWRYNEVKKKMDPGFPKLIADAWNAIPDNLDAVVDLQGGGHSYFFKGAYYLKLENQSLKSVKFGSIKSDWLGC
The experiment in a line: In-vitro fluorescence assay of MMP-2 activity. Format: biochemical. Conditions: recombinant human MMP-2; read-out: MMP-2 IC50.

A further test addresses T2, MMP-13 (Homo sapiens, UniProt P45452).
T2 construct: made in house
The experiment in a line: In-vitro fluorescence assay of MMP-13 activity. Conditions: recombinant human catalytic domain of MMP-13; read-out: MMP-13 IC50. Format: biochemical.

Another test deals with T3, MMP-14 (Homo sapiens, UniProt P50281).
T3 construct: 20 kDa; purchased Chemicon International, Inc. CC 1041
The experiment in a line: In-vitro fluorescence assay of MMP-14 activity. It counts as biochemical.

A further test addresses T4, MMP-1 (Homo sapiens, UniProt P03956).
T4 sequence (P03956 100-269 limits assumed): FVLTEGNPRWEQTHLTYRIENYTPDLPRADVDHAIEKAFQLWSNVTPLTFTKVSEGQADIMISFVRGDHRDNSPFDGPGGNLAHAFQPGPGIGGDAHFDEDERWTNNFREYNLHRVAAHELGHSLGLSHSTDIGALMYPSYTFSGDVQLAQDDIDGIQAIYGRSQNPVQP

[1] abbreviates: recombinant human catalytic domain of MMP-14.

Like-named read-outs stand apart in the source and are kept apart here.

Description for MMP-14: A continuous assay was used in which the substrate is a synthetic peptide containing a fluorescent group (7-methoxycoumarin; Mca) which is quenched by energy transfer to a 2,4-dinitrophenyl group. […] The substrate used was Mca-PQGL-(3-[2,4-dinitrophenyl]-L-2,3-diaminopropionyl)-AR-OH (denoted as Wammp-5, custom synthesized by AnaSpec, Inc.). The assay buffer consisted of 50 mM Hepes (pH 7.4), 100 mM NaCl, 5 mM CaCl2, and 0.005% Brij-35. […] The enzymatic reactions were initiated by adding the substrate to a final concentration of 20 μM, and mixing 10 times with a pipette. The final DMSO concentration in the assay was 6.0%.
Plots of the inhibitor concentration vs. the percent inhibition were fit to the following equation: y=(a−d)/[1+(x/c)^b]+d, a general sigmoidal curve with Hill slope, a to d. x is the inhibitor concentration under test. y is the percent inhibition. a is the limiting response as x approaches zero. As x increases without bound, y tends toward its limit d. c is the inflection point (IC50) for the curve. That is, y is halfway between the lower and upper asymptotes when x=c. b is the slope factor or Hill coefficient.

Turning to `Cc1cc(C(=O)Nc2ccc(-c3ccc(S(=O)(=O)N[C@H](C(=O)O)C(C)C)cc3)cc2)nn1-c1ccccc1` [Example 168, (S)-3-Methyl-2-{4′-[(5-methyl-1-phenyl-1H-pyrazole-3-carbonyl)-amino]-biphenyl-4-sulfonylamino}-butyric acid], the IC50 at MMP-2 was 1290 nM; on MMP-13, 99 nM; on MMP-14 (setting [1]) it was 36 µM; on MMP-1 it was 60 µM.
The like results for `Cc1c(C(=O)Nc2ccc(-c3ccc(S(=O)(=O)N[C@@H](C(=O)O)C(C)C)cc3)cc2)oc2ccccc12` [Example 74, D-3-Methyl-2-{4′-[(3-methyl-benzofuran-2-carbonyl)-amino]-biphenyl-4-sulfonylamino}-butyric acid] were, in that order, 93 nM, 13 nM, 0.029 µM and 28.3 µM.
For `Cc1c(COc2ccc(-c3ccc(S(=O)(=O)N[C@@H](C(=O)O)C(C)C)cc3)cc2)oc2ccccc12` [Example 139, D-3-Methyl-2-[4′-(3-methyl-benzofuran-2-ylmethoxy)-biphenyl-4-sulfonylamino]-butyric acid], the IC50 came to 28 nM at MMP-2, 4.4 nM on MMP-13 and 3.5 µM at MMP-14 (setting [1]).
For the molecule `CC(C)[C@H](NS(=O)(=O)c1ccc(-c2ccc(NC(=O)c3cc4ccccc4[nH]3)cc2)cc1)C(=O)O` [Example 3], the IC50 at MMP-14 (setting [1]) was 5.6 µM.
In the case of `CC(C)[C@H](NS(=O)(=O)c1ccc(-c2ccc(NC(=O)c3cc4c(ccc5ccccc54)o3)cc2)cc1)C(=O)O` [Example 153, L-3-Methyl-2-{4′-[(naphtho[2,1-b]furan-2-carbonyl)-amino]-biphenyl-4-sulfonylamino}-butyric acid], the IC50 turned out to be 14 nM on MMP-2, 0.5 nM at MMP-13, 17 µM on MMP-14 (setting [1]) and 40 µM on MMP-1.
Consider `CC(C)[C@H](C(=O)O)N(C)S(=O)(=O)c1ccc(-c2ccc(NC(=O)c3cc4ccccc4o3)cc2)cc1` [Example 77, N-({4′-[(1-benzofuran-2-ylcarbonyl)amino]-1,1′-biphenyl-4-yl}sulfonyl)-N-methyl-D-valine], for which the IC50 was found to be 6 nM on MMP-2, 5.7 nM on MMP-13, 7.11 µM on MMP-14 (setting [1]) and 15 µM at MMP-1.
Regarding `COc1c(Br)ccc2oc(C(=O)Nc3ccc(-c4ccc(S(=O)(=O)N[C@H](C(=O)O)C(C)C)cc4)cc3)c(C)c12` [Example 118, (S)-2-{4′-[(5-bromo-4-methoxy-3-methyl-benzofuran-2-carbonyl)-amino]-biphenyl-4-sulfonylamino}-3-methyl-butyric acid], the IC50 on MMP-2 turned out to be 1700 nM; at MMP-13, 2.3 nM; on MMP-14, 14.6 µM; at MMP-1 (read-out: MMP-1 IC50, recombinant human catalytic domain of MMP-1), 30 µM.
Consider `Cc1c(C(=O)Nc2ccc(-c3ccc(S(=O)(=O)N[C@H](C(=O)O)C(C)C)cc3)cc2)oc2ccccc12` [Example 83, N-[(4′-{[(3-Methyl-1-benzofuran-2-yl)carbonyl]amino}-1,1′-biphenyl-4-yl)sulfonyl]-L-valine], for which the IC50 was 259 nM on MMP-2, 5.9 nM at MMP-13, 12.4 µM at MMP-14 (setting [1]) and 24.3 µM against MMP-1.
On to `CC(C)[C@@H](NS(=O)(=O)c1ccc(-c2ccc(OCc3cc4ccccc4o3)cc2)cc1)C(=O)O` [Example 141, D-2-[4′-(Benzofuran-2-ylmethoxy)-biphenyl-4-sulfonylamino]-3-methyl-butyric acid], for which the IC50 at MMP-2 is 2.5 nM; at MMP-13, 1.1 nM; at MMP-14 (setting [1]), 0.5 µM.
The like results for `O=C(O)CNS(=O)(=O)c1ccc(-c2ccc(NC(=O)c3cc4ccccc4o3)cc2)cc1` [Example 1, N-({4′-[(1-benzofuran-2-ylcarbonyl)amino]-1,1′-biphenyl-4-yl}sulfonyl)glycine] were, in that order, 47 nM, 35 nM and 13.9 µM.
On to `Cc1c(C(=O)Nc2ccc(-c3ccc(S(=O)(=O)N[C@H](C(=O)O)C(C)C)cc3)cc2)oc2ccc(Cl)c(OC(C)C)c12` [Example 115, (S)-2-{4′-[(5-Chloro-4-isopropoxy-3-methyl-benzofuran-2-carbonyl)-amino]-biphenyl-4-sulfonylamino}-3-methyl-butyric acid], for which the IC50 on MMP-2 is 3010 nM; at MMP-13, 11 nM.
The corresponding values for `CC(C)[C@H](NS(=O)(=O)c1ccc(-c2ccc(NC(=O)c3cc(-c4ccc(Cl)cc4)no3)cc2)cc1)C(=O)O` [Example 166, (S)-2-(4′-{[3-(4-Chloro-phenyl)-isoxazole-5-carbonyl]-amino}-biphenyl-4-sulfonylamino)-3-methyl-butyric acid] are 5.8 nM and 3.1 nM.
The corresponding values for `CC(C)[C@H](NS(=O)(=O)c1ccc(-c2ccc(NC(=O)c3cc4cc(Cl)ccc4o3)cc2)cc1)C(=O)O` [Example 4] are 4.1 nM and 0.3 nM.
The like results for `CC(=O)N(C)c1cccc2oc(C(=O)Nc3ccc(-c4ccc(S(=O)(=O)N[C@H](C(=O)O)C(C)C)cc4)cc3)c(C)c12` [Example 55, L-2-(4′-{[4-(Acetyl-methyl-amino)-3-methyl-benzofuran-2-carbonyl]-amino}-biphenyl-4-sulfonylamino)-3-methyl-butyric acid] were, in that order, 2380 nM and 20 nM.
With `COc1cccc2oc(C(=O)Nc3ccc(-c4ccc(S(=O)(=O)N[C@H](C(=O)O)C(C)C)cc4)cc3)cc12` [Example 11, N-[(4′-{[(4-methoxy-1-benzofuran-2-yl)carbonyl]amino}-1,1′-biphenyl-4-yl)sulfonyl]-L-valine], the IC50 on MMP-2 came out at 16 nM; at MMP-13, 2.3 nM.
Regarding `C=Cc1cccc2oc(C(=O)Nc3ccc(-c4ccc(S(=O)(=O)N(C)[C@H](C(=O)O)C(C)C)cc4)cc3)c(C)c12` [Example 98, N-methyl-N-[(4′-{[(3-methyl-4-vinyl-1-benzofuran-2-yl)carbonyl]amino}-1,1′-biphenyl-4-yl)sulfonyl]-L-valine], the 50% inhibitory concentration (IC50) on MMP-2 turned out to be 890 nM; at MMP-13 it was 84.1 nM.
The corresponding values for `Cc1c(C(=O)Nc2ccc(-c3ccc(S(=O)(=O)N[C@H](C(=O)O)C(C)C)cc3)cc2)oc2ccc3ccccc3c12` [Example 154, L-3-Methyl-2-{4′-[(1-methyl-naphtho[2,1-b]furan-2-carbonyl)-amino]-biphenyl-4-sulfonylamino}-butyric acid] are 60 nM and 1.7 nM.
The corresponding values for `Cc1c(C(=O)Nc2ccc(-c3ccc(S(=O)(=O)N[C@H](C(=O)O)C(C)C)cc3)cc2)oc2cccc(OCc3ccccn3)c12` [Example 178, (S)-3-Methyl-2-(4′-{[3-methyl-4-(pyridin-2-ylmethoxy)-benzofuran-2-carbonyl]-amino}-biphenyl-4-sulfonylamino)-butyric acid] are 3320 nM and 13 nM.
The corresponding values for `Cc1c(C(=O)Nc2ccc(-c3ccc(S(=O)(=O)N[C@H](C(=O)O)C(C)C)cc3)cc2)oc2cccc(CCCN(C)C)c12` [Example 32, L-2-(4′-{[4-(3-Dimethylamino-propyl)-3-methyl-benzofuran-2-carbonyl]-animo}-biphenyl-4-sulfonylamino)-3-methyl-butyric acid] are 3150 nM and 21 nM.
Consider `C#Cc1cccc2oc(C(=O)Nc3ccc(-c4ccc(S(=O)(=O)N[C@H](C(=O)O)C(C)C)cc4)cc3)c(C)c12` [Example 33, L-2-{4′-[(4-Ethynyl-3-methyl-benzofuran-2-carbonyl)-amino]-biphenyl-4-sulfonylamino}-3-methyl-butyric acid], for which the IC50 came to 595 nM at MMP-2 and 6.1 nM on MMP-13.
The like results for `CCc1c(C(=O)Nc2ccc(-c3ccc(S(=O)(=O)N[C@H](C(=O)O)C(C)C)cc3)cc2)oc2ccccc12` [Example 58, L-2-{4′-[(3-Ethyl-benzofuran-2-carbonyl)-amino]-biphenyl-4-sulfonylamino}-3-methyl-butyric acid] were, in that order, 1770 nM and 56 nM.
The like results for `Cc1c(C(=O)Nc2ccc(-c3ccc(S(=O)(=O)N[C@H](C(=O)O)C(C)C)cc3)cc2)oc2cccc(CCCC(C)C)c12` [Example 29, L-3-Methyl-2-(4′-{[3-methyl-4-(4-methyl-pentyl)-benzofuran-2-carbonyl]-amino}-biphenyl-4-sulfonylamino)-butyric acid] were, in that order, 9320 nM and 37 nM.
